The results in this text go back to patent publication US20230220021A1, “CYCLIC PEPTIDE INHIBITORS OF PSD-95 AND USES THEREOF” (University of Copenhagen, priority 2020, published 2023).

Where a SMILES comes first, the peptide text is derived from it. [ ]: non-standard residue; d: D form.

T1 sequence (P78352 160-246 limits assumed): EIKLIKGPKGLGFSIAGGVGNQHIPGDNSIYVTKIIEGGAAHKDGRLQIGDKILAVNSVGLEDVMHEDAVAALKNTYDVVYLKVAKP

The first assay has as its target T1, PSD-95-PDZ2 (Homo sapiens, UniProt P78352).
T1 construct: 7xHis (N); made in house; host or cells: Escherichia coli B21 pLys (for the mutants, 'as previously described')
In words: Fluorescence polarization (FP) competition assay against cyclic nNOS TAMRA probe. In kind it is binding. Conditions: FP competition, cyclic nNOS TAMRA probe; mean of triplicates; N.B. = not binding. Background: Fluorescence polarisation rises when a labelled molecule tumbles more slowly, as on binding a larger partner.
Broadly, the Ki is a measure of affinity in units of concentration, obtained from inhibition or displacement. Regarding “105 (THLETXFTGDGTPKTIRVTQPGQ; cyclized peptide; (6)..(6) X is pT; (21)..(21) is D-AA) [compound 105]”, the inhibition constant Ki result is listed as “N.B”.

The assay is the same for the next values; noted with them: FP competition, cyclic nNOS TAMRA probe; mean of triplicates; N.B. = not binding; read-out: Ki.
For `CC[C@H](C)[C@@H]1NC(=O)[C@H]([C@@H](C)O)NC(=O)[C@@H](CCCCN)NC(=O)[C@@H]2CCCN2C(=O)[C@H]([C@@H](C)O)NC(=O)CNC(=O)[C@H](CC(=O)O)NC(=O)CNC(=O)[C@H]([C@@H](C)O)NC(=O)[C@H](Cc2ccccc2)NC(=O)[C@H]([C@@H](C)O)NC(=O)[C@H]([C@@H](C)O)NC(=O)[C@H](CCC(=O)O)NC(=O)[C@H](CC(C)C)NC(=O)[C@H](Cc2c[nH]cn2)NC(=O)[C@H]([C@@H](C)O)NC(=O)[C@H](CCC(N)=O)NC(=O)CNC(=O)[C@H]2CCCN2C(=O)[C@H](CCC(N)=O)NC(=O)[C@H]([C@@H](C)O)NC(=O)[C@H](C(C)C)NC(=O)[C@H](CCCNC(=N)N)NC1=O` [compound 123], the inhibition constant (Ki) came to 23200 nM.

As for `CC[C@H](C)[C@@H]1NC(=O)[C@H]([C@@H](C)O)NC(=O)[C@H](CCCCN)NC(=O)[C@@H]2CCCN2C(=O)[C@H]([C@@H](C)O)NC(=O)CNC(=O)[C@H](CC(=O)O)NC(=O)CNC(=O)[C@H](CC(=O)O)NC(=O)[C@H](Cc2ccccc2)NC(=O)[C@H]([C@@H](C)O)NC(=O)[C@H]([C@@H](C)O)NC(=O)[C@H](CCC(=O)O)NC(=O)[C@H](CC(C)C)NC(=O)[C@H](Cc2c[nH]cn2)NC(=O)[C@H]([C@@H](C)O)NC(=O)[C@H](CCC(N)=O)NC(=O)CNC(=O)[C@H]2CCCN2C(=O)[C@H](CCC(N)=O)NC(=O)[C@H]([C@@H](C)O)NC(=O)[C@H](C(C)C)NC(=O)[C@H](CCCNC(=N)N)NC1=O` [compound 19] (cyclo(THLETTFDGDGTPKTIRVTQ[dP]GQ)), the Ki was 950 nM. On the same count and under the same terms, for `CC[C@H](C)[C@@H]1NC(=O)[C@H]([C@@H](C)O)NC(=O)[C@H](CCCCN)NC(=O)[C@@H]2CCCN2C(=O)[C@H]([C@@H](C)O)NC(=O)CNC(=O)[C@H](CC(=O)O)NC(=O)CNC(=O)[C@H]([C@@H](C)O)NC(=O)[C@H](Cc2ccccc2)NC(=O)[C@H]([C@@H](C)O)N(C)C(=O)[C@H]([C@@H](C)O)NC(=O)[C@H](CCC(=O)O)NC(=O)[C@H](CC(C)C)NC(=O)[C@H](Cc2c[nH]cn2)NC(=O)[C@H]([C@@H](C)O)NC(=O)[C@H](CCC(N)=O)NC(=O)CNC(=O)[C@H]2CCCN2C(=O)[C@H](CCC(N)=O)NC(=O)[C@H]([C@@H](C)O)NC(=O)[C@H](C(C)C)NC(=O)[C@H](CCCNC(=N)N)NC1=O` [compound 89] the value was 1470 nM; for `CC[C@H](C)[C@@H]1NC(=O)[C@H]([C@@H](C)O)NC(=O)[C@H](CCCCN)NC(=O)[C@@H]2CCCN2C(=O)[C@H]([C@@H](C)O)NC(=O)CNC(=O)[C@H](CC(=O)O)NC(=O)CN(C)C(=O)[C@H]([C@@H](C)O)NC(=O)[C@H](Cc2ccccc2)NC(=O)[C@H]([C@@H](C)O)NC(=O)[C@H]([C@@H](C)O)NC(=O)[C@H](CCC(=O)O)NC(=O)[C@H](CC(C)C)NC(=O)[C@H](Cc2c[nH]cn2)NC(=O)[C@H]([C@@H](C)O)NC(=O)[C@H](CCC(N)=O)NC(=O)CNC(=O)[C@H]2CCCN2C(=O)[C@H](CCC(N)=O)NC(=O)[C@H]([C@@H](C)O)NC(=O)[C@H](C(C)C)NC(=O)[C@H](CCCNC(=N)N)NC1=O` [compound 92], 6190 nM; for `CC[C@H](C)[C@@H]1NC(=O)[C@H]([C@@H](C)O)NC(=O)[C@H](CCCCN)NC(=O)[C@H]2CCCN2C(=O)[C@H]([C@@H](C)O)NC(=O)CNC(=O)[C@H](CC(=O)O)NC(=O)CNC(=O)[C@H]([C@@H](C)O)NC(=O)[C@H](Cc2ccccc2)NC(=O)[C@H]([C@@H](C)O)NC(=O)[C@H]([C@@H](C)O)NC(=O)[C@H](CCC(=O)O)NC(=O)[C@H](CC(C)C)NC(=O)[C@H](Cc2c[nH]cn2)NC(=O)[C@H]([C@@H](C)O)NC(=O)[C@H](CCC(N)=O)NC(=O)CNC(=O)[C@H]2CCCN2C(=O)[C@H](CCC(N)=O)NC(=O)[C@H]([C@@H](C)O)NC(=O)[C@H](C(C)C)NC(=O)[C@H](CCCNC(=N)N)NC1=O` [compound 122], 6700 nM. With `CC[C@H](C)[C@@H]1NC(=O)[C@H]([C@@H](C)O)NC(=O)[C@H](CCCCN)NC(=O)[C@@H]2CCCN2C(=O)[C@H]([C@@H](C)O)NC(=O)CNC(=O)[C@H](CC(=O)O)NC(=O)CNC(=O)[C@H]([C@@H](C)O)NC(=O)[C@H](Cc2ccccc2)NC(=O)[C@H]([C@@H](C)O)NC(=O)[C@H]([C@@H](C)O)NC(=O)[C@H](CCC(=O)O)NC(=O)[C@H](CC(C)C)NC(=O)[C@H](Cc2c[nH]cn2)NC(=O)[C@H]([C@@H](C)O)NC(=O)[C@H](CCC(N)=O)NC(=O)CNC(=O)[C@H]2CCCN2C(=O)[C@H](CCC(N)=O)NC(=O)[C@@H]([C@H](C)O)NC(=O)[C@H](C(C)C)NC(=O)[C@H](CCCNC(=N)N)NC1=O` [compound 128], the inhibition constant (Ki) is 1830 nM. `CC[C@H](C)[C@@H]1NC(=O)[C@H]([C@@H](C)O)NC(=O)[C@H](CCCCN)NC(=O)[C@@H]2CCCN2C(=O)[C@H]([C@@H](C)O)NC(=O)CNC(=O)[C@H](CC(=O)O)NC(=O)CNC(=O)[C@H]([C@@H](C)O)NC(=O)[C@H](Cc2ccccc2)NC(=O)[C@H]([C@@H](C)O)NC(=O)[C@H]([C@@H](C)O)NC(=O)[C@H](CCC(=O)O)NC(=O)[C@H](CC(C)C)NC(=O)[C@H](Cc2c[nH]cn2)NC(=O)[C@H]([C@@H](C)O)NC(=O)[C@H](CCC(N)=O)NC(=O)CNC(=O)[C@H]2CCCN2C(=O)[C@H](CCC(N)=O)N(C)C(=O)[C@H]([C@@H](C)O)NC(=O)[C@H](C(C)C)NC(=O)[C@H](CCCNC(=N)N)NC1=O` [compound 102]: the inhibition constant (Ki) was found to be 2200 nM.

The same assay, now with this note: FP competition, relative to unsubstituted cyclic peptide.
Take “Cyclo-(THLETTFTGDGTPKSIRVTQpG(Qα)) (cyclo(THLETTFTGDGTPKSIRVTQ[dP]GQ); SMILES CC[C@H](C)[C@@H]1NC(=O)[C@H](CO)NC(=O)[C@H](CCCCN)NC(=O)[C@@H]2CCCN2C(=O)[C@H]([C@@H](C)O)NC(=O)CNC(=O)[C@H](CC(=O)O)NC(=O)CNC(=O)[C@H]([C@@H](C)O)NC(=O)[C@H](Cc2ccccc2)NC(=O)[C@H]([C@@H](C)O)NC(=O)[C@H]([C@@H](C)O)NC(=O)[C@H](CCC(=O)O)NC(=O)[C@H](CC(C)C)NC(=O)[C@H](Cc2c[nH]cn2)NC(=O)[C@H]([C@@H](C)O)NC(=O)[C@H](CCC(N)=O)NC(=O)CNC(=O)[C@H]2CCCN2C(=O)[C@H](CCC(N)=O)NC(=O)[C@H]([C@@H](C)O)NC(=O)[C@H](C(C)C)NC(=O)[C@H](CCCNC(=N)N)NC1=O) [SEQ ID NO: 50]”: the “fold lowered (decreased) binding affinity of the cyclic peptide” value is 25 fold.

Still in this assay, the particulars now being: FP inhibition constant normalized to WT value.
With `CC[C@H](C)[C@@H]1NC(=O)[C@H](CO)NC(=O)[C@H](CCCCN)NC(=O)[C@@H]2CCCN2C(=O)[C@H]([C@@H](C)O)NC(=O)CNC(=O)[C@H](CC(=O)O)NC(=O)CNC(=O)[C@H]([C@@H](C)O)NC(=O)[C@H](Cc2ccccc2)NC(=O)[C@H]([C@@H](C)O)NC(=O)[C@H]([C@@H](C)O)NC(=O)[C@H](CCC(=O)O)NC(=O)[C@H](CC(C)C)NC(=O)[C@H](Cc2c[nH]cn2)NC(=O)[C@H]([C@@H](C)O)NC(=O)[C@H](CCC(N)=O)NC(=O)CNC(=O)[C@H]2CCCN2C(=O)[C@H](CCC(N)=O)NC(=O)[C@H]([C@@H](C)O)NC(=O)[C@H](C(C)C)NC(=O)[C@H](CCCNC(=N)N)NC1=O` [compound 50] (cyclo(THLETTFTGDGTPKSIRVTQ[dP]GQ)), the “Relative Ki (Ki mut/Ki WT)” value worked out at 4.79. Same read-out and setting: the figure for `CC[C@H](C)[C@@H]1NC(=O)[C@H]([C@@H](C)O)NC(=O)[C@H](CCCCN)NC(=O)[C@@H]2CCCN2C(=O)[C@H]([C@@H](C)O)NC(=O)CNC(=O)[C@H](CC(=O)O)NC(=O)CNC(=O)[C@H](CC(=O)O)NC(=O)[C@H](Cc2ccccc2)NC(=O)[C@H]([C@@H](C)O)NC(=O)[C@H]([C@@H](C)O)NC(=O)[C@H](CCC(=O)O)NC(=O)[C@H](CC(C)C)NC(=O)[C@H](Cc2c[nH]cn2)NC(=O)[C@H]([C@@H](C)O)NC(=O)[C@H](CCC(N)=O)NC(=O)CNC(=O)[C@H]2CCCN2C(=O)[C@H](CCC(N)=O)NC(=O)[C@H]([C@@H](C)O)NC(=O)[C@H](C(C)C)NC(=O)[C@H](CCCNC(=N)N)NC1=O` [compound 19] (cyclo(THLETTFDGDGTPKTIRVTQ[dP]GQ)) is 0.63. Consider `CC[C@H](C)[C@@H]1NC(=O)[C@H]([C@@H](C)O)NC(=O)[C@H](CCCCN)NC(=O)[C@@H]2CCCN2C(=O)[C@H]([C@@H](C)O)NC(=O)[C@H](CCCNC(=N)N)NC(=O)[C@H](CC(=O)O)NC(=O)CNC(=O)[C@H]([C@@H](C)O)NC(=O)[C@H](Cc2ccccc2)NC(=O)[C@H]([C@@H](C)O)NC(=O)[C@H]([C@@H](C)O)NC(=O)[C@H](CCC(=O)O)NC(=O)[C@H](CC(C)C)NC(=O)[C@H](Cc2c[nH]cn2)NC(=O)[C@H]([C@@H](C)O)NC(=O)[C@H](CCC(N)=O)NC(=O)CNC(=O)[C@H]2CCCN2C(=O)[C@H](CCC(N)=O)NC(=O)[C@H]([C@@H](C)O)NC(=O)[C@H](C(C)C)NC(=O)[C@H](CCCNC(=N)N)NC1=O` [compound 35] (cyclo(THLETTFTGDRTPKTIRVTQ[dP]GQ)), for which the “Relative Ki (Ki mut/Ki WT)” value stood at 0.50. As to `CC[C@H](C)[C@@H]1NC(=O)[C@H]([C@@H](C)O)NC(=O)[C@H](CCCCN)NC(=O)[C@@H]2CCCN2C(=O)[C@H]([C@@H](C)O)NC(=O)CNC(=O)[C@H](CC(=O)O)NC(=O)CNC(=O)[C@H]([C@@H](C)O)NC(=O)[C@H](Cc2ccccc2)NC(=O)[C@H]([C@@H](C)O)NC(=O)[C@H]([C@@H](C)O)NC(=O)[C@H](CCC(=O)O)NC(=O)[C@H](CC(C)C)NC(=O)[C@H](Cc2c[nH]cn2)NC(=O)CNC(=O)[C@H](CCC(N)=O)NC(=O)CNC(=O)[C@H]2CCCN2C(=O)[C@H](CCC(N)=O)NC(=O)[C@H]([C@@H](C)O)NC(=O)[C@H](C(C)C)NC(=O)[C@H](CCCNC(=N)N)NC1=O` [compound 25] (cyclo(GHLETTFTGDGTPKTIRVTQ[dP]GQ)), the “Relative Ki (Ki mut/Ki WT)” value was 3.00. For `CC[C@H](C)[C@@H]1NC(=O)[C@H]([C@@H](C)O)NC(=O)[C@H](CCCCN)NC(=O)[C@@H]2CCCN2C(=O)[C@@H]2CCCN2C(=O)CNC(=O)[C@H](CC(=O)O)NC(=O)CNC(=O)[C@H]([C@@H](C)O)NC(=O)[C@H](Cc2ccccc2)NC(=O)[C@H]([C@@H](C)O)NC(=O)[C@H]([C@@H](C)O)NC(=O)[C@H](CCC(=O)O)NC(=O)[C@H](CC(C)C)NC(=O)[C@H](Cc2c[nH]cn2)NC(=O)[C@H]([C@@H](C)O)NC(=O)[C@H](CCC(N)=O)NC(=O)CNC(=O)[C@H]2CCCN2C(=O)[C@H](CCC(N)=O)NC(=O)[C@H]([C@@H](C)O)NC(=O)[C@H](C(C)C)NC(=O)[C@H](CCCNC(=N)N)NC1=O` [compound 31] (cyclo(THLETTFTGDGPPKTIRVTQ[dP]GQ)), the “Relative Ki (Ki mut/Ki WT)” value was 0.77.
